Measured values from patent publication US10913738B2 (BRISTOL-MYERS SQUIBB COMPANY, priority 2017, dated 2021).
pIC50: −log10 of the molar value. Where two headings read alike, the source gives them in different places.

Assays:
[1] = tested on: MLKL phosphorylation in HT29-L23 human colorectal adenocarcinoma cells; assay: MLKL Phosphorylation High-Content Assay; type: cell-based; conditions: Homo sapiens
In short: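 IC50 and Ymax obtained by 4-parameter logistic fitting of MLKL phosphorylation, measured as mean circ-ring average intensity ratio from high-content images. Staining used an anti-phospho-S358 MLKL antibody overnight at 4° C., following six-hour cell incubation at 37° C.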

[2] = biological target: T1, His-GST-TVMV-hRIPK1(1-324) (Homo sapiens, UniProt Q13546); assay: RIPK1 HTRF Binding Assay
T1 construct: The coding region of human RIPK1(1-324) flanked by NdeI site at 5′ end; made in house; host or cells: Spodoptera frugiperda (Sf9) insect cells, baculovirus
T1 sequence (Q13546 1-324): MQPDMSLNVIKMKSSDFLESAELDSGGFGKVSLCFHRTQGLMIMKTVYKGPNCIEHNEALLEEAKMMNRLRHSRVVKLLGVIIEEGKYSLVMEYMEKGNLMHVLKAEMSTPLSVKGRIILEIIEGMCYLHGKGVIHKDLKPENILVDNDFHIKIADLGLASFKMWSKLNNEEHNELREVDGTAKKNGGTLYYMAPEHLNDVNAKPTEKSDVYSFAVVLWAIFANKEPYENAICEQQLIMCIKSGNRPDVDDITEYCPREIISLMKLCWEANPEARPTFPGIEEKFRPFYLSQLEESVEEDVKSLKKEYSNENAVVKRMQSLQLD

[3] = x marks IC50 class 20-200 nM, read-out: pMLKL cell activity 20-200 nM
[4] = x marks IC50 class <20 nM, read-out: RIPK1 HTRF binding <20 nM
[5] = x marks IC50 class <20 nM, read-out: pMLKL cell activity <20 nM
[6] = x marks IC50 class 20-200 nM, read-out: RIPK1 HTRF binding 20-200 nM
[7] = x marks IC50 class >200 nM, read-out: pMLKL cell activity >200 nM
[8] = x marks IC50 class >200 nM, read-out: RIPK1 HTRF binding >200 nM

Row | SMILES | pIC50 [1, 3] | pIC50 [2, 4] | pIC50 [1, 5] | pIC50 [2, 6] | further results
1 | COc1ncc(-c2ccn3nc(N)nc3c2)cc1C(=O)NCc1ccc(F)cc1OCC1CC1 [Example 145, 5-{2-amino-[1,2,4]triazolo[1,5-a]pyridin-7-yl}-N-{[2-(cyclopropylmethoxy)-4-fluorophenyl]mehtyl}-2-methoxypyridine-3-carboxaamide] | 6.70 to 7.70 | > 7.70 | – | – | –
2 | COc1ncc(-c2ccn3nc(N)nc3c2)cc1C(=O)NCc1c(F)cccc1OCC1CCC1 [Example 146, 5-{2-amino-[1,2,4]triazolo[1,5-a]pyridin-7-yl}-N-{[2-(cyclobutylmethoxy)-6-fluorophenyl]methyl}-2-methoxypyridine-3-carboxamide] | – | > 7.70 | > 7.70 | – | –
3 | COc1ncc(-c2ccn3nc(N)nc3c2)cc1C(=O)NCc1c(F)cccc1OCC1CC1 [Example 147, 5-{2-amino-[1,2,4]triazolo[1,5-a]pyridin-7-yl}-N-{[2-(cyclopropylmethoxy)-6-fluorophenyl]methyl}-2-methoxypyridine-3-carboxamide] | – | > 7.70 | > 7.70 | – | –
4 | COc1ncc(-c2ccn3nc(N)nc3c2)cc1C(=O)NCc1ccccc1OC1CCCC1 [Example 148, 5-{2-amino-[1,2,4]triazolo[1,5-a]pyridin-7-yl}-N-{[2-(cyclopentyloxy)phenyl]methyl}-2-methoxypyridine-3-carboxamide] | – | > 7.70 | > 7.70 | – | –
5 | COc1ncc(-c2ccn3nc(N)nc3c2)cc1C(=O)NCc1ccccc1OCC1CCC1 [Example 149, 5-{2-amino-[1,2,4]triazolo[1,5-a]pyridin-7-yl}-N-{[2-(cyclobutylmethoxy)phenyl]methyl}-2-methoxypyridine-3-carboxamide] | – | > 7.70 | > 7.70 | – | –
6 | COc1ncc(-c2ccn3nc(N)nc3c2)cc1C(=O)NCc1ccccc1OC(F)(F)C(F)F [Example 150, 5-{2-amino-[1,2,4]triazolo[1,5-a]pyridin-7-yl}-2-methoxy-N-{[2-(1,1,2,2-tetrafluoroethoxy)phenyl]methyl}pyridine-3-carboxamide] | 6.70 to 7.70 | > 7.70 | – | – | –
7 | COc1ncc(-c2ccn3nc(N)nc3c2)cc1C(=O)NCc1ccccc1Sc1ccccc1CO [Example 151, 5-{2-amino-[1,2,4]triazolo[1,5-a]pyridin-7-yl}-N-[(2-{[2-(hydroxymethyl)phenyl]sulfanyl}phenyl)methyl]-2-methoxypyridine-3-carboxamide] | – | > 7.70 | > 7.70 | – | –
8 | COc1ncc(-c2ccn3nc(N)nc3c2)cc1C(=O)NCc1c[nH]nc1-c1ccccc1 [Example 152, 5-{2-amino-[1,2,4]triazolo[1,5-a]pyridin-7-yl}-2-methoxy-N-[(3-phenyl-1H-pyrazol-4-yl)methyl]pyridine-3-carboxamide] | 6.70 to 7.70 | – | – | 6.70 to 7.70 | –
9 | CCOc1ccccc1CNC(=O)c1cc(-c2ccn3nc(N)nc3c2)cnc1OC [Example 153, 5-{2-amino-[1,2,4]triazolo[1,5-a]pyridin-7-yl}-N-[(2-ethoxyphenyl)methyl]-2-methoxypyridine-3-carboxamide] | 6.70 to 7.70 | > 7.70 | – | – | –
10 | COc1ccccc1CNC(=O)c1cc(-c2ccn3nc(N)nc3c2)cnc1OC [Example 154, 5-{2-amino-[1,2,4]triazolo[1,5-a]pyridin-7-yl}-2-methoxy-N-[(2-methoxyphenyl)methyl]pyridine-3-carboxamide] | – | – | – | – | pIC50 [1, 7]: < 6.70; pIC50 [2, 8]: < 6.70
11 | COc1ncc(-c2ccn3nc(N)nc3c2)cc1C(=O)NCc1c(Cl)cccc1Oc1ccccc1 [Example 155, 5-{2-amino-[1,2,4]triazolo[1,5-a]pyridin-7-yl}-N-[(2-chloro-6-phenoxyphenyl)methyl]-2-methoxypyridine-3-carboxamide] | – | > 7.70 | > 7.70 | – | –
12 | COc1ccccc1[C@@H](C)NC(=O)c1cc(-c2ccn3nc(N)nc3c2)cnc1OC [Example 156, 5-{2-amino-[1,2,4]triazolo[1,5-a]pyridin-7-yl}-2-methoxy-N-[(1R)-1-(2-methoxyphenyl)ethyl]pyridine-3-carboxamide] | – | – | – | 6.70 to 7.70 | pIC50 [1, 7]: < 6.70
13 | COc1ncc(-c2ccn3nc(N)nc3c2)cc1C(=O)NCc1ccccc1Oc1ccccc1 [Example 158, 5-{2-amino-[1,2,4]triazolo[1,5-a]pyridin-7-yl}-2-methoxy-N-[(2-phenoxyphenyl)methyl]pyridine-3-carboxamide] | – | > 7.70 | > 7.70 | – | –
14 | COc1ncc(-c2ccn3nc(N)nc3c2)cc1C(=O)N[C@H]1CCN(Cc2ccccc2)C1 [Example 159, 5-{2-amino-[1,2,4]triazolo[1,5-a]pyridin-7-yl}-N-[(3S)-1-benzylpyrrolidin-3-yl]-2-methoxypyridine-3-carboxamide] | 6.70 to 7.70 | – | – | – | pIC50 [2, 8]: < 6.70
15 | COc1ncc(-c2ccn3nc(N)nc3c2)cc1C(=O)NCc1cc(C(F)(F)F)ccc1Cl [Example 161, 5-{2-amino-[1,2,4]triazolo[1,5-a]pyridin-7-yl}-N-{[2-chloro-5-(trifluoromethyl)phenyl]methyl}-2-methoxypyridine-3-carboxamide] | 6.70 to 7.70 | > 7.70 | – | – | –
16 | COc1ncc(-c2ccn3nc(N)nc3c2)cc1C(=O)N(C)Cc1cccc(OC(F)(F)F)c1 [Example 162, 5-{2-amino-[1,2,4]triazolo[1,5-a]pyridin-7-yl}-2-methoxy-N-methyl-N-{[3-(trifluoromethoxy)phenyl]methyl}pyridine-3-carboxamide] | 6.70 to 7.70 | > 7.70 | – | – | –
17 | CC(C)Oc1c(F)cc(F)cc1CNC(=O)c1cc(-c2ccn3nc(N)nc3c2)cnc1Cl [Example 163, 5-{2-amino-[1,2,4]triazolo[1,5-a]pyridin-7-yl}-2-chloro-N-{[3,5-difluoro-2-(propan-2-yloxy)phenyl]methyl}pyridine-3-carboxamide] | 6.70 to 7.70 | > 7.70 | – | – | –
18 | Nc1nc2cc(-c3cnc(Cl)c(C(=O)NCc4cccc(OCC5CC5)c4)c3)ccn2n1 [Example 164] | 6.70 to 7.70 | – | – | 6.70 to 7.70 | –
19 | Nc1nc2cc(-c3cnc(Cl)c(C(=O)NCc4ccccc4OC4CCOC4)c3)ccn2n1 (stereo not shown) [Example 165] | 6.70 to 7.70 | – | – | 6.70 to 7.70 | –
20 | Nc1nc2cc(-c3cnc(Cl)c(C(=O)NCc4cc(OC(F)(F)F)ccc4F)c3)ccn2n1 [Example 166, 5-{2-amino-[1,2,4]triazolo[1,5-a]pyridin-7-y1}-2-chloro-N-{[2-fluoro-5-(trifluoromethoxy)phenyl]methyl}pyridine-3-carboxamide] | – | – | – | 6.70 to 7.70 | pIC50 [1, 7]: < 6.70
21 | Nc1nc2cc(-c3cnc(Cl)c(C(=O)NCc4cccc(OC(F)(F)F)c4)c3)ccn2n1 [Example 167] | – | > 7.70 | > 7.70 | – | –
22 | Nc1nc2cc(-c3cnc(Cl)c(C(=O)NCc4ccccc4OC(F)(F)F)c3)ccn2n1 [Example 168, 5-{2-amino-[1,2,4]triazolo[1,5-a]pyridin-7-yl}-2-chloro-N-{[2-(trifluoromethoxy)phenyl]methyl}pyridine-3-carboxamide] | – | – | – | 6.70 to 7.70 | pIC50 [1, 7]: < 6.70
23 | CC(CCNC(=O)c1cc(-c2ccn3nc(N)nc3c2)cnc1Cl)c1ccccc1 (stereo not shown) [Example 169, 5-{2-amino-[1,2,4]triazolo[1,5-a]pyridin-7-yl}-2-chloro-N-(3-phenylbutyl)pyridine-3-carboxamide] | – | – | – | 6.70 to 7.70 | pIC50 [1, 7]: < 6.70
24 | [2H]C([2H])(NC(=O)c1cc(-c2ccn3nc(N)nc3c2)cnc1Cl)c1cc(OC(F)(F)F)ccc1F [Example 171, 5-{2-amino-[1,2,4]triazolo[1,5-a]pyridin-7-yl}-2-chloro-N-{[2-fluoro-5-(trifluoromethoxy)phenyl](deutero)methyl}pyridine-3-carboxamide] | 6.70 to 7.70 | – | – | 6.70 to 7.70 | –
25 | Cc1nc(C)c(-c2ccn3nc(N)nc3c2)cc1C(=O)NCC(O)COc1ccccc1 (stereo not shown) [Example 172, 5-{2-amino-[1,2,4]triazolo[1,5-a]pyridin-7-yl}-N-(2-hydroxy-3-phenoxypropyl)-2,6-dimethylpyridine-3-carboxamide] | 6.70 to 7.70 | > 7.70 | – | – | –
26 | Cc1nc(C)c(-c2ccn3nc(N)nc3c2)cc1C(=O)NCC(O)Cc1ccccc1 (stereo not shown) [Example 173] | – | – | – | 6.70 to 7.70 | pIC50 [1, 7]: < 6.70
27 | Cc1nc(C)c(-c2ccn3nc(N)nc3c2)cc1C(=O)NCCC(C)c1ccccc1 (stereo not shown) [Example 174, 5-{2-amino-[1,2,4]triazolo[1,5-a]pyridin-7-yl}-2,6-dimethyl-N-(3-phenylbutyl)pyridine-3-carboxamide] | – | – | – | 6.70 to 7.70 | pIC50 [1, 7]: < 6.70
28 | Cc1nc(C)c(-c2ccn3nc(N)nc3c2)cc1C(=O)NCCc1cccc(OC(F)(F)F)c1 [Example 175, 5-{2-amino-[1,2,4]triazolo[1,5-a]pyridin-7-yl}-2,6-dimethyl-N-{2-[3-(trifluoromethoxy)phenyl]ethyl}pyridine-3-carboxamide] | – | > 7.70 | > 7.70 | – | –
29 | Cc1nc(C)c(-c2ccn3nc(N)nc3c2)cc1C(=O)NCc1cccc(OCC2CC2)c1 [Example 176, 5-{2-amino-[1,2,4]triazolo[1,5-a]pyridin-7-yl}-N-{[3-(cyclopropylmethoxy)phenyl]methyl]-2,6-dimethylpyridine-3-carboxamide] | – | – | – | 6.70 to 7.70 | pIC50 [1, 7]: < 6.70
